Measured values as given in PMC8041306 (Journal of Medicinal Chemistry, 2021).

Row | SMILES | melting point [°C]
1 | O=C(NCc1ccc(F)cc1)N1C[C@H](c2ccccc2)N2C(=O)OC(c3ccccc3)(c3ccccc3)[C@H]2C1 [Compound 21, (5S,8aR)-N-(4-Fluorobenzyl)-3-oxo-1,1,5-triphenyltetrahydro-1H-oxazolo[3,4-a]pyrazine-7(3H)-carboxamide] | 105 to 107
2 | CCCC1(CCC)OC(=O)N2CCN(C(=O)NCc3ccc(F)cc3)CC21 (stereo not shown) | 74 to 77
3 | O=C(NCc1ccc(F)cc1)N1CCN2C(=O)OC(C3CCCCC3)(C3CCCCC3)C2C1 (stereo not shown) | 94 to 95
4 | N=C(NCc1ccccc1)N1CCN2C(=O)OC(c3ccccc3)(c3ccccc3)C2C1 (stereo not shown) | 68 to 69
5 | N=C(NCc1ccc(F)cc1)N1CCN2C(=O)OC(c3ccccc3)(c3ccccc3)C2C1 (stereo not shown) [Compound 16, N-(4-Fluorobenzyl)-3-oxo-1,1-diphenyltetrahydro-1H-oxazolo[3,4-a]pyrazine-7(3H)-carboximidamide] | 82 to 85
6 | COc1ccccc1C1(c2ccccc2OC)OC(=O)N2CCN(C(=O)NCc3ccc(F)cc3)CC21 (stereo not shown) | 172 to 173
7 | C[C@H]1CN(C(=O)NCc2ccc(F)cc2)C[C@H]2N1C(=O)OC2(c1ccccc1)c1ccccc1 | 153 to 156

Next, values leading:

Row | melting point [°C] | SMILES
8 | 120 to 123 | O=C(NCc1ccc(F)cc1)N1CCN2C(=O)OC3(c4ccccc4-c4ccccc43)C2C1 (stereo not shown)
9 | 110 to 113 | CN(C)c1ccc(C2(c3ccc(N(C)C)cc3)OC(=O)N3CCN(C(=O)NCc4ccc(F)cc4)CC32)cc1 (stereo not shown)
10 | 89 to 90 | Cc1ccc(C2(c3ccc(C)cc3)OC(=O)N3CCN(C(=O)NCc4ccc(F)cc4)CC32)cc1 (stereo not shown)
11 | 104 to 107 | O=C(NCc1ccc(F)cc1)N1CCN2C(=O)OC(c3ccc(F)cc3)(c3ccc(F)cc3)C2C1 (stereo not shown)
12 | 217 to 219 | Cc1ccccc1C1(c2ccccc2C)OC(=O)N2CCN(C(=O)NCc3ccc(F)cc3)CC21 (stereo not shown)
13 | 77 to 79 | O=C(NCc1ccc(F)cc1)N1CCN2C(=O)OC(c3ccc(Cl)cc3)(c3ccc(Cl)cc3)C2C1 (stereo not shown)
